In patent US9873696B2, “Neprilysin inhibitors” (THERAVANCE BIOPHARMA R&D IP, LLC, priority 2010, dated 2018):

molecular target: T1, human NEP (Homo sapiens, UniProt P08473); experiment: In vitro enzyme inhibition assay at human NEP (Assay 1); type: biochemical; conditions: recombinant enzyme, fluorogenic peptide substrate, 37° C.
T1 construct: purchased R&D Systems, Minneapolis, Minn; 1182-ZN
Summary of the method: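 Recombinant enzyme preincubated with compound 30 min at 37 °C, then 10 μM Mca-D-Arg-Arg-Leu-Dap-(Dnp)-OH added in 50 mM HEPES pH 7.5, 100 mM NaCl, 0.01% Tween-20, 10 μM ZnSO4; stopped after 20 min with acetic acid. Fluorescence read at 320/405 nm; Ki from nonlinear fit of v=v0/[1+(I/K′)], reported as pKi.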

T1 sequence (P08473 whole entry): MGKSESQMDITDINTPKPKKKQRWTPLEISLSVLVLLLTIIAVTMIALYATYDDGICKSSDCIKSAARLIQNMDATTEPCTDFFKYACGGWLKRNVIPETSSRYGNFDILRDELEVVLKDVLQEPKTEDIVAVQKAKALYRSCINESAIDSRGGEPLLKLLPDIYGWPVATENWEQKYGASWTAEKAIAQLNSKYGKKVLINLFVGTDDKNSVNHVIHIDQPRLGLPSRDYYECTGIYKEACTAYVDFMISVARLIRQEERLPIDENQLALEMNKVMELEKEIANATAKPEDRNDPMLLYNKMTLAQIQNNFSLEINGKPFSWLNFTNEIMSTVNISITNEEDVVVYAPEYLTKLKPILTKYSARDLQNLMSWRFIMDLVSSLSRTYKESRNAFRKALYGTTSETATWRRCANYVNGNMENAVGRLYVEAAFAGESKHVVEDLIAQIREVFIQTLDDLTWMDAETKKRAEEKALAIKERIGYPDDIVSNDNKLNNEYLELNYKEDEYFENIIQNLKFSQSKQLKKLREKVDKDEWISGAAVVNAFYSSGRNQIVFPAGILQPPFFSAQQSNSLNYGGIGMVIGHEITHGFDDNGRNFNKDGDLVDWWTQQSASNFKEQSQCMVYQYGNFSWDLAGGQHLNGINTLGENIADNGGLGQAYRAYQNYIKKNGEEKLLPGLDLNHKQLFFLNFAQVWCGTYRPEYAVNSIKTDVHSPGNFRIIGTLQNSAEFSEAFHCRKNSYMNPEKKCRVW

Row | SMILES | Ki
1 | O=C(NN(Cc1ccc(-c2cc(Cl)ccc2F)cc1)C[C@@H](O)C(=O)O)c1cc(-c2ccccc2F)no1 [Example 8-18, (R)-3-{N-(5′-Chloro-2′-fluoro-biphenyl-4-ylmethyl)-N′-[3-(2-fluoro-phenyl)-isoxazole-5-carbonyl]-hydrazino}-2-hydroxy-propionic acid] | ≤ 1 nM
2 | O=C(NN(Cc1ccc(-c2cc(F)ccc2O)cc1)C[C@H](O)C(=O)O)c1cc(O)no1 [Example 8-5, (S)-3-[N-(5′-Fluoro-2′-hydroxy-biphenyl-4-ylmethyl)-N′-(3-hydroxy-isoxazole-5-carbonyl)-hydrazino]-2-hydroxy-propionic acid] | 1.26 to 10 nM
3 | COCCN(C)C(=O)c1cc(C(=O)NN(Cc2ccc(-c3ccccc3)cc2)C[C@@H](O)C(=O)O)[nH]n1 [Example 2-5, (R)-3-(N-Biphenyl-4-ylmethyl-N′-{5-[(2-methoxyethyl)methylcarbamoyl]-2H-pyrazole-3-carbonyl}hydrazino)-2-hydroxypropionic acid] | 12.6 to 100 nM
4 | O=C(NN(Cc1ccc(-c2ccccc2)cc1)C[C@@H](O)C(=O)O)c1cc(C(=O)N2CCCCC2)n[nH]1 [Example 2-14, (R)-3-{N-Biphenyl-4-ylmethyl-N′-[5-(piperidine-1-carbonyl)-2H-pyrazole-3-carbonyl]hydrazino}-2-hydroxypropionic acid] | 12.6 to 100 nM
5 | COc1ccccc1C(=O)Nc1cc(C(=O)NN(Cc2ccc(-c3cc(Cl)ccc3F)cc2)C[C@@H](O)C(=O)O)[nH]n1 [Example 8-49, (R)-3-{N-(5′-Chloro-2′-fluoro-biphenyl-4-ylmethyl)-N′-[5-(2-methoxy-benzoylamino)-2H-pyrazole-3-carbonyl]-hydrazino}-2-hydroxy-propionic acid] | ≤ 1 nM
6 | COc1c(F)c(F)c(Cn2nc(C(=O)NN(Cc3ccc(-c4ccccc4)cc3)C[C@@H](O)C(=O)O)cc2C(=O)O)c(F)c1F [Example 2-18, 5-[N′-Biphenyl-4-ylmethyl-N′-((R)-2-carboxy-2-hydroxyethyl)-hydrazinocarbonyl]-2-(2,3,5,6-tetrafluoro-4-methoxybenzyl)-2H-pyrazole-3-carboxylic acid] | 1.26 to 10 nM
7 | O=C(O)c1cc(C(=O)NN(Cc2ccc(-c3cccc(Cl)c3)cc2)C[C@@H](O)C(=O)O)nc(O)n1 [Example 4-38, 6-[N′-((R)-2-Carboxy-2-hydroxy-ethyl)-N′-(3′-chlorobiphenyl-4-ylmethyl)-hydrazinocarbonyl]-2-hydroxy-pyrimidine-4-carboxylic acid] | ≤ 1 nM
8 | O=C(NN(Cc1ccc(-c2ccccc2)cc1)C[C@H](O)C(=O)O)c1nnc[nH]1 [Example 2-20, (S)-3-[N-Biphenyl-4-ylmethyl-N′-(4H-[1,2,4]triazole-3-carbonyl)hydrazino]-2-hydroxypropionic acid] | 126 to 1000 nM
9 | O=C(NN(Cc1ccc(-c2cccc(C(F)(F)F)c2)cc1)C[C@@H](O)C(=O)O)c1cc(O)no1 [Example 5-2, (R)-2-Hydroxy-3-[N′-(3-hydroxy-isoxazole-5-carbonyl)-N-(3′-trifluoromethyl-biphenyl-4-ylmethyl)-hydrazino]-propionic acid] | 12.6 to 100 nM
10 | O=C(NN(Cc1ccc(-c2cc(Cl)ccc2F)cc1)C[C@@H](O)C(=O)O)c1cn(O)nn1 [Example 8-76, (R)-3-[N-(5′-Chloro-2′-fluoro-biphenyl-4-ylmethyl)-N′-(1-hydroxy-1H-[1,2,3]triazole-4-carbonyl)-hydrazino]-2-hydroxy-propionic acid] | ≤ 1 nM
11 | Cc1c(Cl)cc(Cl)cc1-c1ccc(CN(C[C@H](O)C(=O)O)NC(=O)c2cc(O)no2)cc1 [Example 8-28, (S)-3-[N-(3′,5′-Dichloro-2′-methyl-biphenyl-4-ylmethyl)-N′-(3-hydroxy-isoxazole-5-carbonyl)-hydrazino]-2-hydroxy-propionic acid] | 12.6 to 100 nM
12 | O=C(NN(Cc1ccc(-c2cc(Cl)ccc2O)cc1)C[C@H](O)C(=O)O)c1cc(O)no1 [Example 8-6, (S)-3-[N-(5′-Chloro-2′-hydroxy-biphenyl-4-ylmethyl)-N′-(3-hydroxy-isoxazole-5-carbonyl)-hydrazino]-2-hydroxy-propionic acid] | 1.26 to 10 nM
13 | CC(C)(O)c1cc(C(=O)NN(Cc2ccc(-c3cc(Cl)ccc3F)cc2)C[C@@H](O)C(=O)O)nn1CC(=O)O [Example 8-56, (R)-3-[N′-[1-Carboxymethyl-5-(1-hydroxy-1-methyl-ethyl)-1H-pyrazole-3-carbonyl]-N-(5′-chloro-2′-fluoro-biphenyl-4-ylmethyl)-hydrazino]-2-hydroxy-propionic acid] | 1.26 to 10 nM
14 | O=C(NN(Cc1ccc(-c2ccccc2)cc1)C[C@@H](O)C(=O)O)c1cc(C(=O)N2CCOCC2)n[nH]1 [Example 2-15, (R)-3-{N-Biphenyl-4-ylmethyl-N′-[5-(morpholine-4-carbonyl)-2H-pyrazole-3-carbonyl]hydrazino}-2-hydroxypropionic acid] | 1.26 to 10 nM
15 | O=C(NN(Cc1ccc(-c2cccc(Cl)c2)cc1)C[C@@H](O)C(=O)O)c1cnc(-c2ccccc2)o1 [Example 4-28, (R)-3-[N-(3′-Chlorobiphenyl-4-ylmethyl)-N′-(2-phenyl-oxazole-5-carbonyl)-hydrazino]-2-hydroxy-propionic acid] | 12.6 to 100 nM
16 | O=C(NN(Cc1ccc(-c2cccc(Cl)c2)cc1)C[C@@H](O)C(=O)O)c1cc(O)nc(O)n1 [Example 4-36, (R)-3-[N-(3′-Chlorobiphenyl-4-ylmethyl)-N′-(2,6-dihydroxy-pyrimidine-4-carbonyl)-hydrazino]-2-hydroxy-propionic acid] | 12.6 to 100 nM
17 | O=C(NN(Cc1ccc(-c2cccc(Cl)c2)cc1)C[C@@H](O)C(=O)O)c1cc(C(=O)N2CCCC2)n[nH]1 [Example 4-11, (R)-3-{N-(3′-Chlorobiphenyl-4-ylmethyl)-N′-[5-(pyrrolidine-1-carbonyl)-2H-pyrazole-3-carbonyl]-hydrazino}-2-hydroxy-propionic acid] | ≤ 1 nM
18 | O=C(NN(Cc1ccc(-c2ccccc2)cc1)C[C@H](O)C(=O)O)c1cnc2[nH]nnc2c1 [Example 2-22, (S)-3-[N-Biphenyl-4-ylmethyl-N′-(3H-[1,2,3]triazolo[4,5-b]pyridine-6-carbonyl)hydrazino]-2-hydroxypropionic acid] | 126 to 1000 nM
19 | O=C(NN(Cc1ccc(-c2cc(Cl)ccc2F)cc1)C[C@@H](O)C(=O)O)c1cc(C2CC2)n[nH]1 [Example 8-43, (R)-3-[N-(5′-Chloro-2′-fluoro-biphenyl-4-ylmethyl)-N′-(5-cyclopropyl-2H-pyrazole-3-carbonyl)-hydrazino]-2-hydroxy-propionic acid] | ≤ 1 nM
20 | O=C(NN(Cc1ccc(-c2cc(Cl)ccc2F)cc1)C[C@@H](O)C(=O)O)c1cc(-c2cccnc2)on1 [Example 8-34, (R)-3-[N-(5′-Chloro-2′-fluoro-biphenyl-4-ylmethyl)-N′-(5-pyridin-3-yl-isoxazole-3-carbonyl)-hydrazino]-2-hydroxy-propionic acid] | 1.26 to 10 nM
21 | O=C(NN(Cc1ccc(-c2cccc(Cl)c2)cc1)C[C@@H](O)C(=O)O)c1ccc2[nH]nnc2c1F [Example 4-42, (R)-3-[N-(3′-Chlorobiphenyl-4-ylmethyl)-N′-(4-fluoro-1H-benzotriazole-5-carbonyl)-hydrazino]-2-hydroxy-propionic acid] | 1.26 to 10 nM
22 | O=C(NN(Cc1ccc(-c2cccc(Cl)c2)cc1)C[C@@H](O)C(=O)O)c1cc(-c2ccccc2F)no1 [Example 4-31, (R)-3-{N-(3′-Chlorobiphenyl-4-ylmethyl)-N′-[3-(2-fluorophenyl)-isoxazole-5-carbonyl]-hydrazino}-2-hydroxy-propionic acid] | 1.26 to 10 nM
23 | O=C(NN(Cc1ccc(-c2cc(Cl)ccc2F)cc1)C[C@@H](O)C(=O)O)c1cnn[nH]1 [Example 8-75, (R)-3-[N-(5′-Chloro-2′-fluoro-biphenyl-4-ylmethyl)-N′-(3H-[1,2,3]triazole-4-carbonyl)-hydrazino]-2-hydroxy-propionic acid] | ≤ 1 nM
24 | O=C(O)c1cc(C(=O)NN(Cc2ccc(-c3cccc(Cl)c3)cc2)C[C@@H](O)C(=O)O)[nH]n1 [Example 4-23, 5-[N′-((R)-2-Carboxy-2-hydroxy-ethyl)-N′-(3′-chlorobiphenyl-4-ylmethyl)-hydrazinocarbonyl]-1H-pyrazole-3-carboxylic acid] | ≤ 1 nM
25 | O=C(NN(Cc1ccc(-c2cc(Cl)ccc2F)cc1)C[C@@H](O)C(=O)O)c1cc(-c2cnccn2)[nH]n1 [Example 8-50, (R)-3-[N-(5′-Chloro-2′-fluoro-biphenyl-4-ylmethyl)-N′-(5-pyrazin-2-yl-1H-pyrazole-3-carbonyl)-hydrazino]-2-hydroxy-propionic acid] | ≤ 1 nM
26 | O=C(NN(Cc1ccc(-c2ccccc2O)cc1)C[C@@H](O)C(=O)O)c1cc(O)no1 [Example 5-6, (R)-2-Hydroxy-3-[N-(2′-hydroxy-biphenyl-4-ylmethyl)-N′-(3-hydroxy-isoxazole-5-carbonyl)-hydrazino]-propionic acid] | 1.26 to 10 nM
27 | O=C(NN(Cc1ccc(-c2cccc(Cl)c2)cc1Cl)C[C@@H](O)C(=O)O)c1c[nH]nn1 [Example 10-11, (R)-3-[N-(3,3′-Dichloro-biphenyl-4-ylmethyl)-N′-(1H-[1,2,3]triazole-4-carbonyl)-hydrazino]-2-hydroxy-propionic acid] | ≤ 1 nM
28 | O=C(NN(Cc1ccc(-c2cc(Cl)ccc2F)cc1)C[C@@H](O)C(=O)O)c1cc(Cl)no1 [Example 8-29, (R)-3-[N-(5′-Chloro-2′-fluoro-biphenyl-4-ylmethyl)-N′-(3-chloro-isoxazole-5-carbonyl)-hydrazino]-2-hydroxy-propionic acid] | 1.26 to 10 nM
29 | CCCCc1cc(C(=O)NN(Cc2ccc(-c3cccc(Cl)c3)cc2)C[C@@H](O)C(=O)O)[nH]n1 [Example 4-22, (R)-3-[N′-(5-Butyl-2H-pyrazole-3-carbonyl)-N-(3′-chlorobiphenyl-4-ylmethyl)-hydrazino]-2-hydroxy-propionic acid] | ≤ 1 nM
